Experiments:
Format in all cases: in vivo
Set-up in all cases: key: 5: completely killed; 4: seriously injured; 3: considerably injured; 2: somewhat injured; 1: slightly injured; 0: not injured (normally grown)
[1] = system: paddy rice; experiment: Experiment 4 flooded soil treatment: injury to paddy rice; details: 4 weeks after treatment
Description: (§1) Paddy soil (clay loam) was put into a pot so as to have a surface area of 1/15500 ares. Uniformly mixed seeds of several kinds of weeds, viz., nobie (barnyardgrass, Echinochloa spp.), broad-leaved weeds, hotarui (bulrush, Scirpus juncoides) and tamagayatsuri (small-flowered umbrellaplant, Cyperus difformis), were sown in the surface layer of the soil in each pot, and then paddy rice seedlings at the two- or three-leaved stage were transplanted into each pot to a depth of 2 cm, and water was fed into each pot so as to provide a 3 cm deep water layer on the soil surface. After 3 days, in other words at the initial stage of germination of nobie (barnyardgrass, Echinochloa spp.), a predetermined amount of a selected compound obtained in a manner analogous to Example 11 in the form of diluted aqueous solution was dropped into the water layer in each pot. After that, the pots were kept in a glass chamber to allow the paddy rice and the weeds to grow, and after the lapse of 4 weeks from the treatment with the selected compounds, the herbicidal effects and the degree of injury to the paddy rice were evaluated. The evaluation of the herbicidal effects was similarly conducted as to that of Experiment 1.

[2] = system: nobie (barnyardgrass, Echinochloa spp.); experiment: Experiment 4 flooded soil treatment: nobie; details: 4 weeks after treatment
Description: as §1

[3] = system: broad-leaved weeds; experiment: Experiment 4 flooded soil treatment: broad-leaved weeds; details: 4 weeks after treatment
Description: as §1

[4] = system: hotarui (bulrush, Scirpus juncoides); experiment: Experiment 4 flooded soil treatment: hotarui; details: 4 weeks after treatment
Description: as §1

[5] = system: tamagayatsuri (small-flowered umbrellaplant, Cyperus difformis); experiment: Experiment 4 flooded soil treatment: tamagayatsuri; details: 4 weeks after treatment
Description: as §1

[6] = system: rice; experiment: Experiment 5 foliage treatment: rice; details: foliage spray of wettable powder suspension, evaluated 4 weeks after treatment
Experimental: (§2) Upon seedling stage (two- or three-leaved stage) of rice, cockspur (Panicum crus-galli), garden radish, aobiyu (slender amaranth, Amaranthus viridis) and mehishiba (henry crabgrass, Digitaria cliaris) which were grown on a cultivated soil put in pots of 1/15500 ares, a selected compound obtained in a manner analogous to Example 11, in suspended wettable powder, was sprayed to each plant. After that, the pots were kept in a glass chamber to allow each plant to grow, and after the lapse of 4 weeks from the treatment with the selected compounds the herbicidal effects were evaluated. The evaluation of the herbicidal effects was similarly conducted as that of Experiment 1.

[7] = system: cockspur (Panicum crus-galli); experiment: Experiment 5 foliage treatment: cockspur; details: foliage spray of wettable powder suspension, evaluated 4 weeks after treatment
Experimental: as §2

[8] = system: garden radish; experiment: Experiment 5 foliage treatment: garden radish; details: foliage spray of wettable powder suspension, evaluated 4 weeks after treatment
Experimental: as §2

[9] = system: aobiyu (slender amaranth, Amaranthus viridis); experiment: Experiment 5 foliage treatment: aobiyu; details: foliage spray of wettable powder suspension, evaluated 4 weeks after treatment
Experimental: as §2

[10] = system: mehishiba (henry crabgrass, Digitaria cliaris); experiment: Experiment 5 foliage treatment: mehishiba; details: foliage spray of wettable powder suspension, evaluated 4 weeks after treatment
Experimental: as §2

[11] = system: ichibi (velvetleaf, Abutilon theophrasti); experiment: Experiment 6 foliage treatment: ichibi; details: foliage spray of wettable powder suspension, evaluated 4 weeks after treatment
Experimental: as §2, with “ichibi (velvetleaf, Abutilon theophrasti), onamomi (heartleaf cocklebur, Xanthium strumarium) (4 L stage), noasagao (blue morningglory, Ipomoea indica)” for “rice, cockspur (Panicum crus-galli), garden radish, aobiyu (slender amaranth, Amaranthus viridis)”, “ooinutade (pale smartweed, Persicaria lapathifolia)” for “mehishiba (henry crabgrass, Digitaria cliaris)”, “1/8850” for “1/15500”

[12] = system: onamomi (heartleaf cocklebur, Xanthium strumarium); experiment: Experiment 6 foliage treatment: onamomi; details: foliage spray of wettable powder suspension, evaluated 4 weeks after treatment
Experimental: as §2, with “ichibi (velvetleaf, Abutilon theophrasti), onamomi (heartleaf cocklebur, Xanthium strumarium) (4 L stage), noasagao (blue morningglory, Ipomoea indica)” for “rice, cockspur (Panicum crus-galli), garden radish, aobiyu (slender amaranth, Amaranthus viridis)”, “ooinutade (pale smartweed, Persicaria lapathifolia)” for “mehishiba (henry crabgrass, Digitaria cliaris)”, “1/8850” for “1/15500”

[13] = system: noasagao (blue morningglory, Ipomoea indica); experiment: Experiment 6 foliage treatment: noasagao; details: foliage spray of wettable powder suspension, evaluated 4 weeks after treatment
Experimental: as §2, with “ichibi (velvetleaf, Abutilon theophrasti), onamomi (heartleaf cocklebur, Xanthium strumarium) (4 L stage), noasagao (blue morningglory, Ipomoea indica)” for “rice, cockspur (Panicum crus-galli), garden radish, aobiyu (slender amaranth, Amaranthus viridis)”, “ooinutade (pale smartweed, Persicaria lapathifolia)” for “mehishiba (henry crabgrass, Digitaria cliaris)”, “1/8850” for “1/15500”

[14] = system: ooinutade (pale smartweed, Persicaria lapathifolia); experiment: Experiment 6 foliage treatment: ooinutade; details: foliage spray of wettable powder suspension, evaluated 4 weeks after treatment
Experimental: as §2, with “ichibi (velvetleaf, Abutilon theophrasti), onamomi (heartleaf cocklebur, Xanthium strumarium) (4 L stage), noasagao (blue morningglory, Ipomoea indica)” for “rice, cockspur (Panicum crus-galli), garden radish, aobiyu (slender amaranth, Amaranthus viridis)”, “ooinutade (pale smartweed, Persicaria lapathifolia)” for “mehishiba (henry crabgrass, Digitaria cliaris)”, “1/8850” for “1/15500”

C#CC(C)Oc1cc(N(C(=O)C2=C(C(=O)OCCOCC)CCCC2)C(=O)c2cccnc2)c(F)cc1Cl (stereo not drawn) [compound 60]
5: Herbicidal Effect nobie ([2]; 3.13 g/10a) | Herbicidal Effect nobie ([2]; 6.25 g/10a) | Herbicidal Effect broad-leaved weed ([3]; 3.13 g/10a) | Herbicidal Effect broad-leaved weed ([3]; 6.25 g/10a) | Herbicidal Effect tamagayatsuri ([5]; 3.13 g/10a) | Herbicidal Effect tamagayatsuri ([5]; 6.25 g/10a) | Herbicidal Effect garden radish ([8]; 40 g/10a) | Herbicidal Effect garden radish ([8]; 80 g/10a) | Herbicidal Effect aobiyu ([9]; 40 g/10a) | Herbicidal Effect aobiyu ([9]; 80 g/10a) | Herbicidal Effect mehishiba ([10]; 80 g/10a) | Herbicidal Effect ichibi ([11]; 4 g/10a) | Herbicidal Effect ichibi ([11]; 8 g/10a) | Herbicidal Effect onamomi ([12]; 4 g/10a) | Herbicidal Effect onamomi ([12]; 8 g/10a) | Herbicidal Effect noasagao ([13]; 4 g/10a) | Herbicidal Effect noasagao ([13]; 8 g/10a) | Herbicidal Effect ooinutade ([14]; 4 g/10a) | Herbicidal Effect ooinutade ([14]; 8 g/10a)
4: Herbicidal Effect rice ([6]; 80 g/10a) | Herbicidal Effect mehishiba ([10]; 40 g/10a)
2: Herbicidal Effect rice ([6]; 40 g/10a)
1: Herbicidal Effect cockspur ([7]; 40 g/10a) | Herbicidal Effect cockspur ([7]; 80 g/10a)
0.5: Injury of Paddy ([1]; 3.13 g/10a) | Injury of Paddy ([1]; 6.25 g/10a)
4.5: Herbicidal Effect hotarui ([4]; 3.13 g/10a) | Herbicidal Effect hotarui ([4]; 6.25 g/10a)

C#CC(C)Oc1cc(N(C(=O)C2=C(C(=O)OC)CCCC2)C(=O)c2cncc(C(=O)OC)c2)c(F)cc1Cl (stereo not drawn) [compound 67]
0.5: Injury of Paddy ([1]; 3.13 g/10a) | Injury of Paddy ([1]; 6.25 g/10a)
4: Herbicidal Effect hotarui ([4]; 3.13 g/10a) | Herbicidal Effect onamomi ([12]; 4 g/10a)
5: Herbicidal Effect nobie ([2]; 3.13 g/10a) | Herbicidal Effect nobie ([2]; 6.25 g/10a) | Herbicidal Effect broad-leaved weed ([3]; 3.13 g/10a) | Herbicidal Effect broad-leaved weed ([3]; 6.25 g/10a) | Herbicidal Effect hotarui ([4]; 6.25 g/10a) | Herbicidal Effect tamagayatsuri ([5]; 3.13 g/10a) | Herbicidal Effect tamagayatsuri ([5]; 6.25 g/10a) | Herbicidal Effect garden radish ([8]; 40 g/10a) | Herbicidal Effect garden radish ([8]; 80 g/10a) | Herbicidal Effect aobiyu ([9]; 40 g/10a) | Herbicidal Effect aobiyu ([9]; 80 g/10a) | Herbicidal Effect ichibi ([11]; 4 g/10a) | Herbicidal Effect ichibi ([11]; 8 g/10a) | Herbicidal Effect onamomi ([12]; 8 g/10a) | Herbicidal Effect noasagao ([13]; 4 g/10a) | Herbicidal Effect noasagao ([13]; 8 g/10a) | Herbicidal Effect ooinutade ([14]; 4 g/10a) | Herbicidal Effect ooinutade ([14]; 8 g/10a)
1: Herbicidal Effect rice ([6]; 40 g/10a) | Herbicidal Effect rice ([6]; 80 g/10a) | Herbicidal Effect cockspur ([7]; 40 g/10a) | Herbicidal Effect cockspur ([7]; 80 g/10a) | Herbicidal Effect mehishiba ([10]; 40 g/10a) | Herbicidal Effect mehishiba ([10]; 80 g/10a)

COC(=O)C1=C(C(=O)N(C(=O)c2cccnc2)c2cc(C(=O)OC)c(Cl)cc2F)CCCC1 [compound 64]
0: Injury of Paddy ([1]; 3.13 g/10a)
5: Herbicidal Effect nobie ([2]; 3.13 g/10a) | Herbicidal Effect nobie ([2]; 6.25 g/10a) | Herbicidal Effect broad-leaved weed ([3]; 3.13 g/10a) | Herbicidal Effect broad-leaved weed ([3]; 6.25 g/10a) | Herbicidal Effect garden radish ([8]; 40 g/10a) | Herbicidal Effect garden radish ([8]; 80 g/10a) | Herbicidal Effect aobiyu ([9]; 40 g/10a) | Herbicidal Effect aobiyu ([9]; 80 g/10a) | Herbicidal Effect ichibi ([11]; 4 g/10a) | Herbicidal Effect ichibi ([11]; 8 g/10a) | Herbicidal Effect onamomi ([12]; 8 g/10a) | Herbicidal Effect noasagao ([13]; 8 g/10a) | Herbicidal Effect ooinutade ([14]; 4 g/10a) | Herbicidal Effect ooinutade ([14]; 8 g/10a)
0.5: Injury of Paddy ([1]; 6.25 g/10a)
1: Herbicidal Effect rice ([6]; 40 g/10a) | Herbicidal Effect rice ([6]; 80 g/10a) | Herbicidal Effect cockspur ([7]; 40 g/10a) | Herbicidal Effect cockspur ([7]; 80 g/10a) | Herbicidal Effect mehishiba ([10]; 40 g/10a)
4: Herbicidal Effect hotarui ([4]; 3.13 g/10a) | Herbicidal Effect hotarui ([4]; 6.25 g/10a) | Herbicidal Effect tamagayatsuri ([5]; 3.13 g/10a) | Herbicidal Effect tamagayatsuri ([5]; 6.25 g/10a) | Herbicidal Effect onamomi ([12]; 4 g/10a) | Herbicidal Effect noasagao ([13]; 4 g/10a)
2: Herbicidal Effect mehishiba ([10]; 80 g/10a)

— patent US6337417B1, “N-phenyltetrahydrophthalamic acid derivatives, methods of producing same, and herbicides containing same as effective components” (Central Glass Co., Ltd., priority 1994, dated 2002)
